# Assay results as given in publication doi:10.1101/2022.12.02.518844v2 (bioRxiv, 2022).
# System: 1057 cells (GRPR^pos)
# Assay: Cell growth of GRPR^pos mouse melanoma cells
# Assay type: cell-based
# Conditions: 1 µM GRPR inhibitor + 10 nM GRP, low-serum medium, 48 h
structure (smiles),measurement,value
COc1ccc(C2(CNC(=O)[C@](C)(Cc3c[nH]c4ccccc34)NC(=O)Nc3ccc([N+](=O)[O-])cc3)CCCCC2)nc1 [PD-176252],GRP-induced growth assessed by MTT,same blocking effect
